Literature values, collected in PMC6265740, “Biochemical and Anti-Triple Negative Metastatic Breast Tumor Cell Properties of Psammaplins” (Marine Drugs, 2018).

Experiments:
[1] = system: MDA-MB-231; set-up: method as in PMID 28574600; conditions: embryonic zebrafish, xenografts, and orthotopic tumor models ref 38; cited from earlier work
[2] = system: MDA-MB-231; set-up: method as in PMID 28574600; conditions: in vitro ref 38; cited from earlier work
[3] = system: SIRT1; set-up: method as in PMID 25445714, PMID 27537898; conditions: breast tumor cells ref 36,37; cited from earlier work

Row | SMILES | MDA-MB-231 metastatic potential [1] | MDA-MB-231 migration and angiogenesis [2] | SIRT1 enzyme expression and activity [3]
1 | C=CCSSSCC=C [Garlic diallyl trisulfide, diallyl trisulfide] | suppress MDA-MB-231 metastatic potential | inhibited MDA-MB-231 migration and angiogenesis | –
2 | O=C(NCCSSCCNC(=O)/C(Cc1ccc(O)c(Br)c1)=N/O)/C(Cc1ccc(O)c(Br)c1)=N/O [Psammaplin A] | – | – | decreased SIRT1 enzyme expression and activity
